20 molecules from US10858365B2, “Triazolo-pyrimidine compounds and uses thereof” (Dizal (Jiangsu) Pharmaceutical Co., Ltd., priority 2018, dated 2020) can be followed below.

What all share (assay type): cell-based
One experiment addresses hA2a (Homo sapiens (Human), UniProt P29274). Briefly: cAMP inhibition assay in hA2a/CHO cells. To be noted: adenosine stimulation, read-out: cAMP & FLIPR IC50 (nM) hA2a. As for the experimental part:
(§1) hA2a/CHO, hA2b/CHO and mA2a/CHO (Genscript) were plated at 5×10^3 cells/well into 384-well polystyrene plates at the day of experiment. Compounds were pre-incubated with cells for 30 min at 37° C., 5% CO2. Then […] adenosine was added to the cells and incubated for 30 min at 37° C., 5% CO2. Detection reagent (CISBIO) was added and the plates were incubated for 60 min at room temperature. The signal was captured by Envision.
FLIPR™ and cAMP inhibition activities of exemplary compounds in different adenosine receptor over-expressing cell lines are shown in Table 4 below.

In another experiment the target is hA1 (Homo sapiens (Human), UniProt P30542). The experiment in a line: FLIPR inhibition assay in hADORA1/CHO (hA1 expressing) cells. The following applies: hADORA1/CHO cells, FLIPR calcium, adenosine stimulation; read-out: cAMP & FLIPR IC50 (nM) hA1. The method, then:
hADORA1/CHO (hA1 expressing) cells (Genscript) were plated at 1×10^4 cells/well into 384-well polystyrene plates one day before starting the experiment. On the day of experiment, the supernatant was discard and replaced with 40 µL of dye (FLIPR calcium 5 Assay Kit) per well and the plates were incubated for 60 mins at 37° C. plus 5% CO2. Then testing compounds were added at different concentrations for FLIPR™ inhibition assay. After a 400 s incubation with compound, […] adenosine was added into the cells, and the signal was captured by FLIPR.

In the next experiment the target is hA2b (Homo sapiens (Human), UniProt P29275). Briefly: cAMP inhibition assay in hA2b/CHO cells. The following applies: adenosine stimulation, read-out: cAMP & FLIPR IC50 (nM) hA2b. As for the experimental part:
as §1

The target of a further experiment is mA2a (Mus musculus (Mouse), UniProt Q60613). Briefly: cAMP inhibition assay in mA2a/CHO cells. The following applies: adenosine stimulation, read-out: cAMP & FLIPR IC50 (nM) mA2a. The method, then:
as §1

Chain of hA2b (P29275 whole entry): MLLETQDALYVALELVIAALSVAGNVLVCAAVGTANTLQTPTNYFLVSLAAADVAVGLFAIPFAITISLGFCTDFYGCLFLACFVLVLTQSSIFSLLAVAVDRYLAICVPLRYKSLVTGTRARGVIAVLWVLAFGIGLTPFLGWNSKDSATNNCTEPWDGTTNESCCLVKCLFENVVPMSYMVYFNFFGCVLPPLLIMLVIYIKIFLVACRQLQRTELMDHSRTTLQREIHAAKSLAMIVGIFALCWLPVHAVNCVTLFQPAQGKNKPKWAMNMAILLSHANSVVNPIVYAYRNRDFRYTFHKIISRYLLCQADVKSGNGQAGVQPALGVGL
Chain of mA2a (Q60613 whole entry): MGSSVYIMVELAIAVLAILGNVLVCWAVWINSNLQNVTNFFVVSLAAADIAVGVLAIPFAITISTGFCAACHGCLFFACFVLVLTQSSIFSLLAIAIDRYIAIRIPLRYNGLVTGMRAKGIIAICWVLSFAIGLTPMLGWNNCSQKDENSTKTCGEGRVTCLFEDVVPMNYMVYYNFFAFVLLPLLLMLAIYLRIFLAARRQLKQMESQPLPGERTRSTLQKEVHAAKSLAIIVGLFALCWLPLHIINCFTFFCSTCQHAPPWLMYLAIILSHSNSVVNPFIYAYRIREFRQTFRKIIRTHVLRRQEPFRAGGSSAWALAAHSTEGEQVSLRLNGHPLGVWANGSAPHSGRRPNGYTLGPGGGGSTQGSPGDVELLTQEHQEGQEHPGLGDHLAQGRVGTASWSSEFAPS
Chain of hA2a (P29274 whole entry): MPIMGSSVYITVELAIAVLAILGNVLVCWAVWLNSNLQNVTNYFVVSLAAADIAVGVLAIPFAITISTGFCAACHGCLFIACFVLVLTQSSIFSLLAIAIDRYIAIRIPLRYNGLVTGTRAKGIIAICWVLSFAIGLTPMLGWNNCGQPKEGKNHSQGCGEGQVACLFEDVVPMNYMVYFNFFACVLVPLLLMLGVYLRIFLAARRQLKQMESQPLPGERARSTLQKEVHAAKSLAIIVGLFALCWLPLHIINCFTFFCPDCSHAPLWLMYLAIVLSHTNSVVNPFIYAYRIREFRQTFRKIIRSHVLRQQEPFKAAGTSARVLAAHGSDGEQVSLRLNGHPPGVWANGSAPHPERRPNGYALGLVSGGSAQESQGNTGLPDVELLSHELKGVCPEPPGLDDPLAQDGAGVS
Chain of hA1 (P30542 whole entry): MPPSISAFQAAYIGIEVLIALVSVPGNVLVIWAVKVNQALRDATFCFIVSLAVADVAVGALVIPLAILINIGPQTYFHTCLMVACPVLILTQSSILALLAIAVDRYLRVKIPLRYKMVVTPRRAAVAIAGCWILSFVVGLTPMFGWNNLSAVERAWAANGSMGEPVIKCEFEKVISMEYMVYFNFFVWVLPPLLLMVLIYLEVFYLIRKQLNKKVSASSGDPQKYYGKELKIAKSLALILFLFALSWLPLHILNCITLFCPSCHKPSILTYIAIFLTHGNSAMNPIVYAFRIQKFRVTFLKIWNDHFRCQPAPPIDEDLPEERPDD

What is called IC50 is the point on the concentration scale where inhibition reaches its midpoint. On to `Cc1cnc2ccc(-c3c(-c4ncco4)nc(N)n4nc(CC5CCCO5)nc34)cn12` (single isomer, unassigned) [Example 106-1, 8-(3-methylimidazo[1,2-a]pyridin-6-yl)-7-(oxazol-2-yl)-2-((tetrahydrofuran-2-yl)methyl)-[1,2,4]triazolo[1,5-f]pyrimidin-5-amine], for which the IC50 is 0.5 nM at hA2a and 53.2 nM on hA1.

For the molecule `Cc1cnc2ccc(-c3c(-c4ncco4)nc(N)n4nc(CC5CCCO5)nc34)cn12` (single isomer, unassigned) [Example 106-2, 8-(3-methylimidazo[1,2-a]pyridin-6-yl)-7-(oxazol-2-yl)-2-((tetrahydrofuran-2-yl)methyl)-[1,2,4]triazolo[1,5-f]pyrimidin-5-amine], the IC50 came out at 0.2 nM at hA2a and 34.9 nM on hA1.

As to `Cc1cnc2ccc(-c3c(-c4ncco4)nc(N)n4nc(CC5CCOC5)nc34)cn12` (single isomer, unassigned) [Example 107-1, 8-(3-methylimidazo[1,2-a]pyridin-6-yl)-7-(oxazol-2-yl)-2-((tetrahydrofuran-3-yl)methyl)-[1,2,4]triazolo[1,5-f]pyrimidin-5-amine], the IC50 is 0.5 nM on hA2a, 416 nM at hA2b, 32.7 nM on mA2a and 54.6 nM at hA1.

Regarding `Cc1cnc2ccc(-c3c(-c4ncco4)nc(N)n4nc(CC5CCOC5)nc34)cn12` (single isomer, unassigned) [Example 107-2, 8-(3-methylimidazo[1,2-a]pyridin-6-yl)-7-(oxazol-2-yl)-2-((tetrahydrofuran-3-yl)methyl)-[1,2,4]triazolo[1,5-f]pyrimidin-5-amine], the IC50 on hA2a came to 0.5 nM; on hA2b, 473 nM; on mA2a, 27.7 nM; at hA1, 34.5 nM.

Regarding `Cc1cnc2ccc(-c3c(-c4ccc(F)cc4)nc(N)n4nc(CC5CCOC5)nc34)cn12` (single isomer, unassigned; isomer 1) [Example 105-1, 7-(4-fluorophenyl)-8-(3-methylimidazo[1,2-a]pyridin-6-yl)-2-((tetrahydrofuran-3-yl)methyl)-[l,2, 4]triazolo[1,5-c]pyrimidin-5-amine(isomer 1)], the IC50 came to 0.1 nM on hA2a, 47.5 nM on hA2b, 1 nM on mA2a and 14 nM on hA1.

As for `Cc1cnc2ccc(-c3c(N4CCOC(C)C4)nc(N)n4nc(Cc5ncccc5F)nc34)cn12` (single isomer, unassigned; isomer 1) [Example 112-1, 2-((3-fluoropyridin-2-yl)methyl)-8-(3-methylimidazo[l,2-a]pyridin-6-yl)-7-(2-methylmorpholino)-[1,2,4]triazolo[1,5-c]pyrimidin-5-amine (isomer 1)], the 50% inhibitory concentration (IC50) on hA2a worked out at 91.6 nM; on hA1 it was 966 nM.

`Cc1cnc2ccc(-c3c(N4CCOC[C@@H]4C)nc(N)n4nc(Cc5ncccc5F)nc34)cn12` (single isomer, unassigned; isomer 1) [Example 113-1, 2-((3-fluoropyridin-2-yl)methyl)-8-(3-methylimidazo[l,2-a]pyridin-6-yl)-7-(3-methylmorpholino)-[1,2,4]triazolo[1,5-c]pyrimidin-5-amine (isomer 1)]: the IC50 turned out to be 42.4 nM on hA2a and 3270 nM on hA1.

On to `Cc1cnc2ccc(-c3c(-c4ccc(F)cc4)nc(N)n4nc(CC5CCOC5)nc34)cn12` (single isomer, unassigned; isomer 2) [Example 105-2, 7-(4-fluorophenyl)-8-(3-methylimidazo[l,2-a]pyridin-6-yl)-2-((tetrahydrofuran-3-yl)methyl)-[1,2, 4]triazolo[1,5-c]pyrimidin-5-amine(isomer 2)], for which the IC50 on hA2b turned out to be 71.6 nM; on hA1 it was 11.8 nM.

Turning to `Cc1cnc2ccc(-c3c(N4CCOC(C)C4)nc(N)n4nc(Cc5ncccc5F)nc34)cn12` (single isomer, unassigned; isomer 2) [Example 112-2, 2-((3-fluoropyridin-2-yl)methyl)-8-(3-methylimidazo[l,2-a]pyridin-6-yl)-7-(2-methylmorpholino)-[1,2,4]triazolo[1,5-c]pyrimidin-5-amine (isomer 2)], the figures for the IC50 on hA2a and on hA1 were 3.2 nM and 120 nM, respectively.

Regarding `Cc1cnc2ccc(-c3c(N4CCOCC4C)nc(N)n4nc(Cc5ncccc5F)nc34)cn12` (single isomer, unassigned; isomer 2) [Example 113-2, 2-((3-fluoropyridin-2-yl)methyl)-8-(3-methylimidazo[1,2-a]pyridin-6-yl)-7-(3-methylmorpholino)-[1,2,4]triazolo[1,5-c]pyrimidin-5-amine (isomer 2)], the IC50 at hA2a is 73 nM; on hA1, above 10000 nM.

With `COc1cc(-c2c(-c3ccc(F)cc3)nc(N)n3nc(Cc4c(F)cccc4F)nc23)ccn1` [Example 5, 2-(2,6-difluorobenzyl)-7-(4-fluorophenyl)-8-(2-methoxypyridin-4-yl)-[1,2,4]lriazolo[1,5-c] pyrimidin-5-amine], the half-maximal inhibitory concentration (IC50) on hA2a was 1.9 nM; at mA2a it was 1.5 nM.

For `Cn1cc(-c2c(-c3ncco3)nc(N)n3nc(Cc4ncccc4OC(F)F)nc23)ccc1=O` [Example 71, 5-(5-amino-2-[[3-(difluoromethoxy)pyridin-2-yl]methyl]-7-(1,3-oxazol-2-yl)-[1,2,4]triazolo[1,5-c]pyrimidin-8-yl)-1-methyl-1,2-dihydropyridin-2-one], the IC50 on hA2a came out at 11 nM; at hA2b it was 102 nM; on hA1, 8.9 nM.

Turning to `CN1CCC[C@H]1Cc1nc2c(-c3ccc4ncn(C)c4c3)c(-c3ccc(F)cc3)nc(N)n2n1` [Example 103, (S)-7-(4-fluorophenyl)-8-(1-methyl-1H-benzo[d]imidazol-6-yl)-2-((1-methylpyrrolidin-2-yl)methyl)-[1,2,4]triazolo[1,5-c]pyrimidin-5-amine], the IC50 was found to be 8.3 nM at hA2a, 30.3 nM on mA2a and 264 nM at hA1.

Regarding `CN1CCC[C@@H]1Cc1nc2c(-c3ccc4ncn(C)c4c3)c(-c3ccc(F)cc3)nc(N)n2n1` [Example 104, (R)-7-(4-fluorophenyl)-8-(1-methyl-1H-benzo[d]imidazol-6-yl)-2-((1-methylpyrrolidin-2-yl)methyl)-[1,2,4]triazolo[1,5-c]pyrimidin-5-amine], the IC50 at hA2a came out at 1 nM; on mA2a, 5.7 nM; at hA1 it was 34.1 nM.

On to `Cc1cnc2ccc(-c3c(N4CCN(C)CC4)nc(N)n4nc(Cc5c(F)cccc5F)nc34)cn12` [Example 108, 2-(2,6-difluorobenzyl)-8-(3-methylimidazo[1,2-a]pyridin-6-yl)-7-{4-methylpiperazin-l-yl)-[1,2,4] triazolo[1,5-c]pyrimidin-5-amine], for which the IC50 at hA2a was determined as 42.3 nM; at hA1, 131 nM.

On to `COC1CN(c2nc(N)n3nc(Cc4c(F)cccc4F)nc3c2-c2ccc3ncc(C)n3c2)C1` [Example 109, 2-(2,6-difluorobenzyl)-7-(3-methoxyazetidin-l-yl)-8-(3-methylimidazo[l,2-a]pyridin-6-yl)-[l,2,4] triazolo[1,5-c]pyrimidin-5-amine], for which the figures for the IC50 on hA2a and on hA1 were 3.5 nM and 30.6 nM, respectively.

With `Cc1cnc2ccc(-c3c(N4CC5(COC5)C4)nc(N)n4nc(Cc5ncccc5F)nc34)cn12` [Example 118, 2-((3-fluoropyridin-2-yl)methyl)-8-(3-methylimidazo[l,2-a]pyridin-6-yl)-7-(2-oxa-6-azaspiro[3.3)heptan-6-yl)-[l,2,4]triazolo[l,5-c]pyrimidin-5-a mine], the IC50 at hA2a was 228 nM; on hA1 it was above 8090 nM.

With `Cc1cnc2ccc(-c3c(N4CCC4)nc(N)n4nc(Cc5ncccc5F)nc34)cn12` [Example 119, 7-(azetidin-l-yl)-2-((3-fluoropyridin-2-yl)methyl)-8-(3-methylimidazo[1,2-a]pyridin-6-yl)-[1,2,4] triazolo[1,5-c]pyrimidin-5-amine], the IC50 at hA2a was determined as 1.9 nM; at hA1, 48.6 nM.

On to `Cc1cnc2ccc(-c3c(-c4ccc(F)cc4)nc(N)n4nc(C[C@H]5CCCN5C)nc34)cn12` [Example 125, (R)-7-(4-fluorophenyl)-8-(3-methylimidazo[l,2-a]pyrdin-6-yl)-2-((1-methylpyrrolidin-2-yl)methyl)-[l,2,4]triazolo[l,5-c]pyrimidin-5-amine], for which the IC50 at hA2a worked out at 0.4 nM; on hA1, 34.1 nM.

Turning to `COCCc1nc2c(-c3ccc4ncc(C)n4c3)c(-c3ncco3)nc(N)n2n1` [Example 126, 2-(2-methoxyethyl)-8-(3-methylimidazo[l,2-a]pyridin-6-yl)-7-(oxazol-2-yl)-[1,2,4]triazolo[1,5-c]pyrimidin-5-amine], the IC50 on hA2a stood at 1.1 nM; on hA1, 83.6 nM.
